One experiment concerns the target T1, human Factor Xa (Homo sapiens, UniProt P00742).
T1 construct: purchased Boehringer Manheim Co., Ltd
In words: Factor Xa-inhibiting activity, synthetic substrate PS-2000. The experiment is classed as biochemical. Conditions: Table 4; PS-2000, pH 8.5, 37° C. The text has this:
Synthetic substrates used for testing the inhibitory activity of the inhibitors on decomposition of substrates by the enzymes were as follows. For plasmin, PS-994 (H--D--Lys(Tos)--Phe--Lys--CHA·2HCl, mfd. by NITTO BOSEKI Co., Ltd.) was used; for thrombin and trypsin, PS-915 (H--D--Phe--Pro--Arg--CHA·2HCl, mfd. by NITTO BOSEKI Co., Ltd.); for Factor Xa, PS-2000 (Z--D--Lys--(HCO)--Gly--Arg--CHA·HCl, mfd. by NITTO BOSEKI Co., Ltd.); and for kallikrein, S-2302 (H--D--Pro--Phe--Arg--pNA, mfd., by Kabi Co., Ltd.).
As plasmin, standard plasmin of Sankyo Color Test α2 -D1 Kit was used in an amount of 0.3CU/ml. As thrombin, that of Sankyo Color Test ATIII kit was used in an amount of 1.2 NIHU/ml. As trypsin, that of cord 3703 of Worthington was used in an amount of 2 μg/ml. As human Factor Xa, that of Boehringer Manheim Co., Ltd. was used in an amount of 0.25 U/ml. As human plasma kallikrein, that of Kabi Co., Ltd. was used in an amount of 0.12 U/ml. As terminating color reagents, those for Sankyo Color Test Kit were used. The reactions were carried out at 37° C. unless otherwise specified.
Each of aqueous solutions (1 ml) of the inhibitors which solutions were various in their respective concentrations was added to 0.3 ml of a buffer solution (a 150 mM aqueous sodium chloride solution containing 50 mM Tris, pH 8.5 ), and the resulting solution was heated for 5 minutes. Then, 0.1 ml of a Factor Xa solution (a 150 mM aqueous sodium chloride solution containing 50 mM Tris and 20 mM calcium chloride, pH 8.5) was added, followed by incubation for 5 minutes. Subsequently, a 5% polyvinyl pyrrobidone solution (0.1 ml) containing 10 mM PS-2000 was added, followed by incubation for 5 min. Thereafter, 2 ml of terminating color reagent was added. After standing for 10 minutes, absorbance at 700 nm was measured and IC50 was determined in the manner described above.

The target in a further experiment is plasmin (Homo sapiens, UniProt P00747). The experiment can be described thus: Inhibitory activity on fibrinogen decomposition by plasmin (natural substrate). Details: purchased Sankyo (Color Test α2 -D1 Kit). The class given is biochemical. Conditions: Table 4; 2% fibrinogen, pH 7.2, 37° C. As to the method: The determination was carried out by a modification of the method described in Takaaki Aoyagi. "Koso Sogai Busshitsu (Enzyme Inhibiting Substances)" Kyoritsu Zensho, p. 12.
To 0.3 ml of phosphate buffer (pH 7.2) was added 0.1 ml of an aqueous solution of each inhibitor, and the resulting solution was heated at 37° C. for 5 minutes. Then, 0.1 ml of a plasmin solution (12 CU/ml) was added, followed by incubation for 5 minutes. Subsequently, 0.7 ml of phosphate buffer (pH 7.2) containing 2% fibrinogen was added, followed by incubation for 15 minutes. After completion of the reaction, a 12% aqueous hydrochloride acid solution (1.5 ml) containing 6% trichloroacetic acid was added, and the resulting mixture was lightly shaken, allowed to stand at room temperature for 15 minutes, and then centrifuged (3000 r.p.m., 10 minutes). The absorbance of the supernatant was measured at 280 nm, and a concentration of the inhibitor at which the absorbance was the same as when the amount of the enzyme added was reduced by half was determined as IC50.

Counter-ions that a name gives are not always drawn. Where a SMILES comes first, the peptide text is derived from it. [ ]: non-standard residue; d: D form. The star is where a group is joined. Tos = Cc1ccc(S(=O)(=O)*)cc1; Moc = COC(=O)*; For = O=C*

T1 sequence (P00742 235-488 limits assumed): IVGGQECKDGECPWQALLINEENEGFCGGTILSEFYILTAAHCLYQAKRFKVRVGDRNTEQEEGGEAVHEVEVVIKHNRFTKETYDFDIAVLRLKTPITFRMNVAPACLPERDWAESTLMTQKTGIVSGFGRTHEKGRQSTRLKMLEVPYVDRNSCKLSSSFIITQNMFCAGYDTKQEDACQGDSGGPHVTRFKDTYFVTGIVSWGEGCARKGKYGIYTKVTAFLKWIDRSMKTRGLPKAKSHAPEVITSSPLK
T1 sequence (P00742 41-179 partner limits assumed): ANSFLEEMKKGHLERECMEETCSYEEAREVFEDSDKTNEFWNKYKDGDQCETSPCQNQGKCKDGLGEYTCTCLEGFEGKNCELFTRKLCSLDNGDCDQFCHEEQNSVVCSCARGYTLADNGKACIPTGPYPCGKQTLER
plasmin, sequence (P00747 581-810 limits assumed, species assumed): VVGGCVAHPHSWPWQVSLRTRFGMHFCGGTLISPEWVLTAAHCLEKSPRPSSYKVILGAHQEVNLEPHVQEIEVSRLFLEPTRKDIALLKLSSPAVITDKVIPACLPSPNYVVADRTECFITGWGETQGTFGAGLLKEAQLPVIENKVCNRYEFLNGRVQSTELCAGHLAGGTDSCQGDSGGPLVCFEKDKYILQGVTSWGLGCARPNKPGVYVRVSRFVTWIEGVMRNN
plasmin, sequence (P00747 97-580 partner limits assumed, species assumed): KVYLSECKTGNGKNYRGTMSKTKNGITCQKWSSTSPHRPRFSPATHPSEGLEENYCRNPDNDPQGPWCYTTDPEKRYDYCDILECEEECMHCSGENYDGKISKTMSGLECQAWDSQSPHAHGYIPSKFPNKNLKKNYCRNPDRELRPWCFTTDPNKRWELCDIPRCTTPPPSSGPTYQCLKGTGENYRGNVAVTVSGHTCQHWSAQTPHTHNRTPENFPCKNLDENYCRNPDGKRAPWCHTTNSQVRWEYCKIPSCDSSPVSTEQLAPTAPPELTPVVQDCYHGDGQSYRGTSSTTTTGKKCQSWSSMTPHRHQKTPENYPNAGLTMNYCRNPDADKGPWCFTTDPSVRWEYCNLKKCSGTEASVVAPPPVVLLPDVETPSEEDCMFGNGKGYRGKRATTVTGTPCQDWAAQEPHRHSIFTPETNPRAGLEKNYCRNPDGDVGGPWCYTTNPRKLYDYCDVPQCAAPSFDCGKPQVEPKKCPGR

By IC50 is commonly meant the concentration at which inhibition is half-maximal. Read a low IC50 as greater potency in that assay. With `COC(=O)N[C@H](CCCCNS(=O)(=O)c1ccc(C)cc1)C(=O)N[C@@H](Cc1ccccc1)C(=O)N[C@H](C=O)CCCCN` [Compound 2, N-α-Methoxycarbonyl-N-ε-(p-tosyl)-D-lysyl-L-phenylalanyl-L-lysinal hydrochloride] (Moc-[dK](Tos)-Phe-Lys-aldehyde), the IC50 against human Factor Xa worked out at 22 µM; against plasmin, 0.13 µM.

On to `Cc1ccc(S(=O)(=O)NCCCC[C@@H](NC=O)C(=O)N[C@@H](Cc2ccccc2)C(=O)N[C@H](C=O)CCCCN)cc1` [Compound 4, N-α-Formyl-N-ε-(p-tosyl)-D-lysyl-L-phenylalanyl-L-lysinal hydrochloride] (For-[dK](Tos)-Phe-Lys-aldehyde), for which the IC50 at human Factor Xa came out at 85 µM; against plasmin, 0.19 µM.

The record behind these values is patent US4883863A, “Tripeptide derivatives and antiplasmin agents containing the same” (Nitto Boseki Co., Ltd., priority 1987, dated 1989).
